From the NIST ThermoML archive (doi:10.1016/j.jct.2014.03.023)
± gives the expanded uncertainty stated by the source.

Tests used:
[1] = Pendant drop shape
[2] = molar heat capacity at constant pressure; conditions: 101 kPa, Liquid, Small sample (50 mg) DSC
[3] = wn = mass fraction of the nth substance listed; conditions: Pendant drop shape, w1 = 1

CC[n+]1ccc(C)cc1.O=S(=O)([N-]S(=O)(=O)C(F)(F)F)C(F)(F)F
Conditions | molar heat capacity at constant pressure [J/K/mol] | surface tension liquid-gas [mN/m]
[1], 298.2 K | – | 24.3 ± 0.4
[1], 303.2 K | – | 23.9 ± 0.4
[1], 313.2 K | – | 23.1 ± 0.4
[1], 323.2 K | – | 22.2 ± 0.4
[2], 296.2 K | 627 ± 27 | –
[2], 300.2 K | 634 ± 27 | –
[2], 304.2 K | 637 ± 27 | –
[2], 308.2 K | 640 ± 27 | –
[2], 312.2 K | 644 ± 27 | –
[2], 316.2 K | 647 ± 27 | –
[2], 320.2 K | 649 ± 28 | –
[2], 324.2 K | 652 ± 28 | –
[2], 328.2 K | 655 ± 28 | –
[2], 332.2 K | 659 ± 28 | –
[2], 336.2 K | 665 ± 28 | –
[2], 340.2 K | 669 ± 28 | –
[2], 344.2 K | 674 ± 29 | –
[2], 348.2 K | 679 ± 29 | –
[2], 352.2 K | 685 ± 29 | –
[2], 356.2 K | 691 ± 29 | –
[2], 360.2 K | 697 ± 30 | –
[2], 364.2 K | 703 ± 30 | –
[2], 368.2 K | 708 ± 30 | –
[2], 372.2 K | 715 ± 30 | –

CCn1cc[n+](C)c1.N#CN=C=[N-] [1-ethyl-3-methylimidazolium dicyanamide]
[1]
Conditions | surface tension liquid-gas [mN/m]
298.2 K | 56.4 ± 0.9
303.2 K | 56 ± 0.9
313.2 K | 54.8 ± 0.9
323.2 K | 53.5 ± 0.8

CCn1cc[n+](C)c1.N#CN=C=[N-] [1-ethyl-3-methylimidazolium dicyanamide] + CC[n+]1ccc(C)cc1.O=S(=O)([N-]S(=O)(=O)C(F)(F)F)C(F)(F)F
[3]
Conditions | surface tension liquid-gas [mN/m]
298.2 K | 56.4 ± 0.9
303.2 K | 56 ± 0.9
313.2 K | 54.8 ± 0.9
323.2 K | 53.5 ± 0.8
